According to US20050090529A1, “3,5 Disubstituted indazole compounds with nitrogen-bearing 5-membered heterocycles, pharmaceutical compositions, and methods for mediating or inhibiting cell proliferation” (PFIZER INC, priority 2003, published 2005):

tested on: Cyclin-dependent kinase; experiment: Cyclin-dependent kinase inhibition, % inhibition at 10 nM (library Examples 99-270); format: biochemical; details: 10 nM compound
Procedure: Cyclin-dependent kinase activity was measured by quantifying the enzyme-catalyzed, time-dependent incorporation of radioactive phosphate from [^32P]ATP or [^33P]ATP into a protein substrate. Unless noted otherwise, assays were performed in 96-well plates in a total volume of 50 μL, in the presence of 10 mM HEPES (N-[2-hydroxyethyl]piperazine-N′-[2-ethanesulfonic acid]) (pH 7.4), 10 mM MgCl2, 25 μM adenosine triphosphate (ATP), 1 mg/mL ovalbumin, 5 μg/mL leupeptin, 1 mM dithiothreitol, 10 mM beta-glycerophosphate, 0.1 mM sodium vanadate, 1 mM sodium fluoride, 2.5 mM ethylene glycol-bis(β-aminoethyl ethKer)-N,N,N′N′-tetraacetic acid (EGTA), 2% (v/v) dimethylsulfoxide, and 0.03-0.4 μCi [^32/33P]ATP per reaction. Reactions were initiated with enzyme, incubated at 30° C., and terminated after 20 minutes by the addition of ethylenediaminetetraacetic acid (EDTA) to 250 mM. The phosphorylated substrate was then captured on a nitrocellulose or phosphocellulose membrane using a 96-well filtration manifold, and unincorporated radioactivity was removed by repeated washing with 0.85% phosphoric acid. Radioactivity was quantified by exposing the dried membranes to a phosphorimager.
Results of assays performed on compounds, which include the specific examples described above are provided in Examples 99-274 above, and in Table 1 below. Unless indicated otherwise in a particular entry, the units and assays used are as indicated in the applicable column of the table.

Point of comparison: `CCNCc1cncc(-c2ccc3[nH]nc(-c4ncc(C(=O)N[C@@H](CO)[C@@H](O)c5ccc(SC)cc5)[nH]4)c3c2)c1C` [Example 111, 2-(5-{5-[(ethylamino)methyl]-4-methylpyridin-3-yl}-1H-indazol-3-yl)-N-{(1S,2S)-2-hydroxy-1-(hydroxymethyl)-2-[4-(methylthio)phenyl]ethyl}-1H-imidazole-5-carboxamide], “% Inhib @ 10 nM” value 73%. Against it:
- CCNCc1cncc(-c2ccc3[nH]nc(-c4ncc(C(=O)N5CCC(c6nnc(CN(C)C)o6)CC5)[nH]4)c3c2)c1C [Example 257] — lower, 37%
- CCNCc1cncc(-c2ccc3[nH]nc(-c4ncc(C(=O)N5CCCC(Cc6ncccn6)CC5)[nH]4)c3c2)c1C (stereo not shown) [Example 261, ethyl({4-methyl-5-[3-(5-{[4-(pyrimidin-2-ylmethyl)azepan-1-yl]carbonyl}-1H-imidazol-2-yl)-1H-indazol-5-yl]pyridin-3-yl}methyl)amine] — lower, 30%
- CCNCc1cncc(-c2ccc3[nH]nc(-c4ncc(C(=O)NC(CO)CCSC)[nH]4)c3c2)c1C (stereo not shown) [Example 172] — lower, 36%
- CCNCc1cncc(-c2ccc3[nH]nc(-c4ncc(C(=O)N(C)CCN(C)C)[nH]4)c3c2)c1C [Example 156] — lower, 25%
- CCNCc1cncc(-c2ccc3[nH]nc(-c4ncc(C(=O)NCCC56CCCN5CCC6)[nH]4)c3c2)c1C [Example 216, 2-(5-{5-[(ethylamino)methyl]-4-methylpyridin-3-yl}-1H-indazol-3-yl)-N-[2-(tetrahydro-1H-pyrrolizin-7a(5H)-yl)ethyl]-1H-imidazole-5-carboxamide] — lower, 13%
- CCNCc1cncc(-c2ccc3[nH]nc(-c4ncc(C(=O)N5CCc6cc(OC)c(OC)cc6C5)[nH]4)c3c2)c1C [Example 121, {[5-(3-{5-[(6,7-dimethoxy-3,4-dihydroisoquinolin-2(1H)-yl)carbonyl}-1H-imidazol-2-yl}-1H-indazol-5-yl)-4-methylpyridin-3-yl]methyl)ethylamine] — lower, 69%
- CCNCc1cncc(-c2ccc3[nH]nc(-c4ncc(C(=O)N(CCN(C)C)Cc5ccccc5)[nH]4)c3c2)c1C [Example 123, N-benzyl-N-[2-(dimethylamino)ethyl]-2-(5-{5-[(ethylamino)methyl]-4-methylpyridin-3-yl}-1H-indazol-3-yl)-1H-imidazale-5-carboxamide] — lower, 54%
- CCNCc1cncc(-c2ccc3[nH]nc(-c4ncc(C(=O)N5CCN(Cc6ccc(OC)cc6)CC5)[nH]4)c3c2)c1C [Example 181, ethyl({5-[3-(5-{[4-(4-methoxybenzyl)piperazin-1-yl]carbonyl}1H-imidazol-2-yl)-1H-indazol-5-yl]-4-methylpyridin-3-yl}methyl)amine] — lower, 57%
- CCNCc1cncc(-c2ccc3[nH]nc(-c4ncc(C(=O)NCCSCc5ccc(CN(C)C)o5)[nH]4)c3c2)c1C [Example 155, N-{2-[({5-[(dimethylamino)methyl]-2-furyl}methyl)thio]ethyl}-2-(5-{5-[(ethylamino)methyl]-4-methylpyridin-3-yl}-1H-indazol-3-yl)-1H-imidazoie-5-carboxamide] — lower, 37%
- CCNCc1cncc(-c2ccc3[nH]nc(-c4ncc(C(=O)N5CCC(c6cccnc6)C5)[nH]4)c3c2)c1C (stereo not shown) [Example 242, ethyl{[4-methyl-5-(3-{5-[(3-pyridin-3-ylpyrrolidin-1-yl)carbonyl]-1H-imidazol-2-yl}-1H-indazol-5-yl)pyridin-3-yl]methyl}amine] — lower, 66%
- CCNCc1cncc(-c2ccc3[nH]nc(-c4ncc(C(=O)N5CCN(C(C)=O)CC5)[nH]4)c3c2)c1C [Example 116] — lower, 66%
- CCNCc1cncc(-c2ccc3[nH]nc(-c4ncc(C(=O)NC(CO)c5cccnc5)[nH]4)c3c2)c1C (stereo not shown) [Example 244] — lower, 55%
